The results in this text go back to patent publication US10596082B2, “Oral care compositions and methods of use” (Colgate-Palmolive Company, priority 2017, dated 2020).

The assay relates to microorganisms. Description: Bactericidal testing of toothpaste final base made with contaminated PCC slurry (plate count). The conditions noted are these: final toothpaste base with previously contaminated PCC slurry, plated on MLA, 30° C. The method, then:
In a stainless steel bucket, water and humectant was first added and stirred using an overhead stirrer (EUROSTAR 200, IKA, North Carolina, USA) equipped with a cowles disperser. Mixing was started at 500 rpm for 1 minute. Gum and salts (buffering agents, sweetener, fluoride) were added next and the resulting solution was mixed at 1,000 rpm for 20 minutes to obtain a gel phase.
A fraction of the gel phase sample was transferred to a new stainless steel bucket. Using an overhead stirrer (EUROSTAR 200, IKA) equipped with a 4-bladed propeller stirrer, mixing was performed at 750 rpm for 1 minute. Next, to the mixture was added water, PCC slurry (previously contaminated for the study purpose), surfactant, and other ingredients (benzyl alcohol/caprylyl glycol or phenethyl alcohol/caprylyl glycol) and mixed for 15 minutes to obtain the final base.
Sample preparation was made by mixing 10 grams of the final base (see Example 1) with 90 mL of diluent (TAT broth (catalog #298410, BD) supplemented with 0.3% NaCl and 4% Tween) to achieve a 1:10 dilution. Serial dilutions of 10^−1 to 10^−6 were made in neutralizing broth (TAT supplemented with 0.3% NaCl), allowed to incubate for 0, 2, 4, 6, 24 and 48 hours, and plated in 15-20 mL of melted Modified Letheen Agar (MLA). Plates were swirled to allow complete dispersion and allowed to solidify. Solidified plates were then inverted and incubated at 30° C. for at least 48 hours. Colonies were counted using a Quebec colony counter (Phoenix Luferco, Brazil). Table 2 presents the study results, showing numbers of microorganisms per gram of product (CFU/) at different time points.

As for `OCc1ccccc1` [Benzyl alcohol (0.30%), Benzyl alcohol], the “numbers of microorganisms per gram of product, 0 hr” value is on record as 13,300 CFU/; the “numbers of microorganisms per gram of product, 2 hr” value was 18,250 CFU/; the “numbers of microorganisms per gram of product, 4 hr” value is given as 13,000 CFU/; the “numbers of microorganisms per gram of product, 6 hr” value is 8,000 CFU/. Moreover, the “numbers of microorganisms per gram of product, 24 hr” value is recorded as 3,650 CFU/ and the “numbers of microorganisms per gram of product, 48 hr” value came to 125 CFU/.

`CCCCCCC(O)CO` (stereo not drawn) [Caprylyl glycol (0.20%), Caprylyl glycol]: the “numbers of microorganisms per gram of product, 0 hr” value was 13,300 CFU/; the “numbers of microorganisms per gram of product, 2 hr” value was 14,000 CFU/; the “numbers of microorganisms per gram of product, 4 hr” value was 1,200 CFU/; the “numbers of microorganisms per gram of product, 6 hr” value was 2,100 CFU/. For the same molecule, the “numbers of microorganisms per gram of product, 24 hr” value came to 435 CFU/ and the “numbers of microorganisms per gram of product, 48 hr” value is reported as 80 CFU/.
